# Key:
# [1] = The drug is tested on Collinsella aerofaciens strain: ATCC25986 for biotransformation. The drug concentrations were measured before and after a 12-h incubation by liquid-chromatography-coupled mass spectrometry (LC–MS); conditions: 2 µM
# [2] = The drug is tested on Ruminococcus gnavus strain: ATCC29149 for biotransformation. The drug concentrations were measured before and after a 12-h incubation by liquid-chromatography-coupled mass spectrometry (LC–MS); conditions: mediterraneibacter gnavus, 2 µM
# [3] = anaerostipes sp., 12 h, 2 µM
# Description: The drug is tested on Anaerostipes sp. strain: fecal isolate for biotransformation. The drug concentrations were measured before and after a 12-h incubation by liquid-chromatography-coupled mass spectrometry (LC–MS)
# [4] = The drug is tested on Bacteroides vulgatus strain: ATCC8482 for biotransformation. The drug concentrations were measured before and after a 12-h incubation by liquid-chromatography-coupled mass spectrometry (LC–MS); conditions: phocaeicola vulgatus, 2 µM
# [5] = The drug is tested on Providencia stuartii strain: ATCC25827 for biotransformation. The drug concentrations were measured before and after a 12-h incubation by liquid-chromatography-coupled mass spectrometry (LC–MS); conditions: 2 µM
# [6] = bifidobacterium adolescentis, 12 h, 2 µM
# Description: The drug is tested on Bifidobacterium adolescentis strain: ATCC 15703 for biotransformation. The drug concentrations were measured before and after a 12-h incubation by liquid-chromatography-coupled mass spectrometry (LC–MS)
# [7] = The drug is tested on Enterococcus faecalis strain: V583 for biotransformation. The drug concentrations were measured before and after a 12-h incubation by liquid-chromatography-coupled mass spectrometry (LC–MS); conditions: 2 µM
# [8] = The drug is tested on Bacteroides caccae strain: ATCC43185 for biotransformation. The drug concentrations were measured before and after a 12-h incubation by liquid-chromatography-coupled mass spectrometry (LC–MS); conditions: 2 µM
# [9] = The drug is tested on Bacteroides fragilis strain: ATCC43859 for biotransformation. The drug concentrations were measured before and after a 12-h incubation by liquid-chromatography-coupled mass spectrometry (LC–MS); conditions: 2 µM
# [10] = The drug is tested on Collinsella intestinalis strain: DSM13280 for biotransformation. The drug concentrations were measured before and after a 12-h incubation by liquid-chromatography-coupled mass spectrometry (LC–MS); conditions: 2 µM
# [11] = The drug is tested on Bifidobacterium breve strain: DSM20213 for biotransformation. The drug concentrations were measured before and after a 12-h incubation by liquid-chromatography-coupled mass spectrometry (LC–MS); conditions: 2 µM
# [12] = The drug is tested on Edwardsiella tarda strain: ATCC23685 for biotransformation. The drug concentrations were measured before and after a 12-h incubation by liquid-chromatography-coupled mass spectrometry (LC–MS); conditions: 2 µM
# [13] = enterocloster bolteae, 12 h, 2 µM
# Description: The drug is tested on Clostridium bolteae strain: ATCCBAA-613 for biotransformation. The drug concentrations were measured before and after a 12-h incubation by liquid-chromatography-coupled mass spectrometry (LC–MS)
# [14] = The drug is tested on Bifidobacterium longum subsp. Infantis strain: CCUG52486 for biotransformation. The drug concentrations were measured before and after a 12-h incubation by liquid-chromatography-coupled mass spectrometry (LC–MS); conditions: 2 µM
# [15] = The drug is tested on Parabacteroides merdae strain: ATCC43184 for biotransformation. The drug concentrations were measured before and after a 12-h incubation by liquid-chromatography-coupled mass spectrometry (LC–MS); conditions: 2 µM
# [16] = The drug is tested on Clostridium symbiosum strain: ATCC14940 for biotransformation. The drug concentrations were measured before and after a 12-h incubation by liquid-chromatography-coupled mass spectrometry (LC–MS); conditions: 2 µM
# [17] = The drug is tested on Bacteroides fragilis strain: HMW610 for biotransformation. The drug concentrations were measured before and after a 12-h incubation by liquid-chromatography-coupled mass spectrometry (LC–MS); conditions: 2 µM
# [18] = The drug is tested on Anaerotruncus colihominis strain: DSM17241 for biotransformation. The drug concentrations were measured before and after a 12-h incubation by liquid-chromatography-coupled mass spectrometry (LC–MS); conditions: 2 µM
# [19] = The drug is tested on Dorea formicigenerans strain: ATCC27755 for biotransformation. The drug concentrations were measured before and after a 12-h incubation by liquid-chromatography-coupled mass spectrometry (LC–MS); conditions: 2 µM
# [20] = The drug is tested on Anaerococcus hydrogenalis strain: DSM7454 for biotransformation. The drug concentrations were measured before and after a 12-h incubation by liquid-chromatography-coupled mass spectrometry (LC–MS); conditions: 2 µM
# [21] = akkermansia muciniphila, 12 h, 2 µM
# Description: The drug is tested on Akkermansia muciniphila strain: ATCC BAA-835 for biotransformation. The drug concentrations were measured before and after a 12-h incubation by liquid-chromatography-coupled mass spectrometry (LC–MS)
# [22] = The drug is tested on Bacteroides pectinophilus strain: ATCC43243 for biotransformation. The drug concentrations were measured before and after a 12-h incubation by liquid-chromatography-coupled mass spectrometry (LC–MS); conditions: 2 µM
# [23] = The drug is tested on Ruminococcus torques strain: ATCC27756 for biotransformation. The drug concentrations were measured before and after a 12-h incubation by liquid-chromatography-coupled mass spectrometry (LC–MS); assay type: ADME; parameters: dose 2 uM, timepoint 0 vs 12 hours; conditions: 2 µM
# [24] = The drug is tested on Enterobacter cancerogenus strain: ATCC35316 for biotransformation. The drug concentrations were measured before and after a 12-h incubation by liquid-chromatography-coupled mass spectrometry (LC–MS); conditions: 2 µM
# [25] = The drug is tested on Bacteroides xylanisolvens strain: DSM18836 for biotransformation. The drug concentrations were measured before and after a 12-h incubation by liquid-chromatography-coupled mass spectrometry (LC–MS); conditions: 2 µM
# [26] = segatella copri, 12 h, 2 µM
# Description: The drug is tested on Prevotella copri strain: DSM18205 for biotransformation. The drug concentrations were measured before and after a 12-h incubation by liquid-chromatography-coupled mass spectrometry (LC–MS)
# [27] = The drug is tested on Eubacterium ventriosum strain: ATCC27560 for biotransformation. The drug concentrations were measured before and after a 12-h incubation by liquid-chromatography-coupled mass spectrometry (LC–MS); assay type: ADME; parameters: dose 2 uM, timepoint 0 vs 12 hours; conditions: 2 µM
# [28] = The drug is tested on Escherichia coli strain: BW25113 for biotransformation. The drug concentrations were measured before and after a 12-h incubation by liquid-chromatography-coupled mass spectrometry (LC–MS); conditions: 2 µM
# [29] = parabacteroides distasonis, 12 h, 2 µM
# Description: The drug is tested on Parabacteroides distasonis strain: ATCC8503 for biotransformation. The drug concentrations were measured before and after a 12-h incubation by liquid-chromatography-coupled mass spectrometry (LC–MS)
# [30] = parabacteroides johnsonii, 12 h, 2 µM
# Description: The drug is tested on Parabacteroides johnsonii strain: DSM18315 for biotransformation. The drug concentrations were measured before and after a 12-h incubation by liquid-chromatography-coupled mass spectrometry (LC–MS)
# [31] = The drug is tested on Bacteroides dorei strain: DSM17855 for biotransformation. The drug concentrations were measured before and after a 12-h incubation by liquid-chromatography-coupled mass spectrometry (LC–MS); conditions: phocaeicola dorei, 2 µM
# [32] = The drug is tested on Clostridium asparagiforme strain: DSM15981 for biotransformation. The drug concentrations were measured before and after a 12-h incubation by liquid-chromatography-coupled mass spectrometry (LC–MS); assay type: ADME; parameters: dose 2 uM, timepoint 0 vs 12 hours; conditions: enterocloster asparagiformis, 2 µM
# [33] = bacteroides stercoris, 12 h, 2 µM
# Description: The drug is tested on Bacteroides stercoris strain: ATCC43183 for biotransformation. The drug concentrations were measured before and after a 12-h incubation by liquid-chromatography-coupled mass spectrometry (LC–MS)
# [34] = The drug is tested on Coprococcus comes strain: ATCC27758 for biotransformation. The drug concentrations were measured before and after a 12-h incubation by liquid-chromatography-coupled mass spectrometry (LC–MS); assay type: ADME; parameters: dose 2 uM, timepoint 0 vs 12 hours; conditions: 2 µM
# [35] = The drug is tested on Clostridium scindens strain: ATCC35704 for biotransformation. The drug concentrations were measured before and after a 12-h incubation by liquid-chromatography-coupled mass spectrometry (LC–MS); conditions: 2 µM
# [36] = The drug is tested on Clostridium ramosum strain: DSM1402 for biotransformation. The drug concentrations were measured before and after a 12-h incubation by liquid-chromatography-coupled mass spectrometry (LC–MS); conditions: thomasclavelia ramosa, 2 µM
# [37] = The drug is tested on Alistipes indistinctus strain: DSM22520 for biotransformation. The drug concentrations were measured before and after a 12-h incubation by liquid-chromatography-coupled mass spectrometry (LC–MS); conditions: 2 µM
# [38] = The drug is tested on Blautia luti strain: DSM14534 for biotransformation. The drug concentrations were measured before and after a 12-h incubation by liquid-chromatography-coupled mass spectrometry (LC–MS); assay type: ADME; parameters: dose 2 uM, timepoint 0 vs 12 hours; conditions: 2 µM
# [39] = bacteroides thetaiotaomicron, 12 h, 2 µM
# Description: The drug is tested on Bacteroides thetaiotaomicron strain: 3731 for biotransformation. The drug concentrations were measured before and after a 12-h incubation by liquid-chromatography-coupled mass spectrometry (LC–MS)
# [40] = limosilactobacillus reuteri cf48-3a, 12 h, 2 µM
# Description: The drug is tested on Lactobacillus reuteri CF48-3A strain: BEI HM-102 for biotransformation. The drug concentrations were measured before and after a 12-h incubation by liquid-chromatography-coupled mass spectrometry (LC–MS)
# [41] = The drug is tested on Eubacterium rectale strain: ATCC33656 for biotransformation. The drug concentrations were measured before and after a 12-h incubation by liquid-chromatography-coupled mass spectrometry (LC–MS); conditions: agathobacter rectalis, 2 µM
# [42] = The drug is tested on Ruminococcus lactaris strain: ATCC29176 for biotransformation. The drug concentrations were measured before and after a 12-h incubation by liquid-chromatography-coupled mass spectrometry (LC–MS); conditions: 2 µM
# [43] = The drug is tested on Bifidobacterium ruminantium strain: fecal isolate for biotransformation. The drug concentrations were measured before and after a 12-h incubation by liquid-chromatography-coupled mass spectrometry (LC–MS); conditions: 2 µM
# [44] = bacteroides intestinalis, 12 h, 2 µM
# Description: The drug is tested on Bacteroides intestinalis strain: DSM17393 for biotransformation. The drug concentrations were measured before and after a 12-h incubation by liquid-chromatography-coupled mass spectrometry (LC–MS)
# [45] = The drug is tested on Bacteroides sp. WH2 strain: WH2 for biotransformation. The drug concentrations were measured before and after a 12-h incubation by liquid-chromatography-coupled mass spectrometry (LC–MS); conditions: bacteroides sp. wh2, 12 h, 2 µM
# [46] = The drug is tested on Bacteroides ovatus strain: ATCC8483 for biotransformation. The drug concentrations were measured before and after a 12-h incubation by liquid-chromatography-coupled mass spectrometry (LC–MS); conditions: 2 µM
# [47] = The drug is tested on Odoribacter splanchnicus strain: fecal isolate for biotransformation. The drug concentrations were measured before and after a 12-h incubation by liquid-chromatography-coupled mass spectrometry (LC–MS); conditions: 2 µM
# [48] = The drug is tested on Bacteroides finegoldii strain: DSM17565 for biotransformation. The drug concentrations were measured before and after a 12-h incubation by liquid-chromatography-coupled mass spectrometry (LC–MS); conditions: 2 µM
# [49] = The drug is tested on Providencia rettgeri strain: DSM1131 for biotransformation. The drug concentrations were measured before and after a 12-h incubation by liquid-chromatography-coupled mass spectrometry (LC–MS); assay type: ADME; parameters: dose 2 uM, timepoint 0 vs 12 hours; conditions: 2 µM
# [50] = The drug is tested on Eubacterium hallii strain: DSM3353 for biotransformation. The drug concentrations were measured before and after a 12-h incubation by liquid-chromatography-coupled mass spectrometry (LC–MS); conditions: anaerobutyricum hallii, 2 µM
# [51] = The drug is tested on Clostridium sporogenes strain: ATCC15579 for biotransformation. The drug concentrations were measured before and after a 12-h incubation by liquid-chromatography-coupled mass spectrometry (LC–MS); conditions: 2 µM
# [52] = The drug is tested on Subdoligranulum variabile strain: DSM15176 for biotransformation. The drug concentrations were measured before and after a 12-h incubation by liquid-chromatography-coupled mass spectrometry (LC–MS); conditions: 2 µM
Compound,Bacterial Biotransformation [2],Bacterial Biotransformation [3],Bacterial Biotransformation [5],Bacterial Biotransformation [8],Bacterial Biotransformation [10],Bacterial Biotransformation [13],Bacterial Biotransformation [14],Bacterial Biotransformation [16],Bacterial Biotransformation [18],Bacterial Biotransformation [19],Bacterial Biotransformation [20],Bacterial Biotransformation [21],Bacterial Biotransformation [23],Bacterial Biotransformation [24],Bacterial Biotransformation [27],Bacterial Biotransformation [28],Bacterial Biotransformation [30],Bacterial Biotransformation [34],Bacterial Biotransformation [39],Bacterial Biotransformation [40],further results
Nc1nc(NC2CC2)c2ncn([C@H]3C=C[C@@H](CO)C3)c2n1.Nc1nc(NC2CC2)c2ncn([C@H]3C=C[C@@H](CO)C3)c2n1.O=S(=O)(O)O [ABACAVIR SULFATE],Compound NOT metabolized,Compound NOT metabolized,Compound NOT metabolized,Compound NOT metabolized,Compound NOT metabolized,Compound NOT metabolized,Compound NOT metabolized,Compound NOT metabolized,Compound NOT metabolized,Compound NOT metabolized,Compound NOT metabolized,Compound NOT metabolized,Compound NOT metabolized,Compound NOT metabolized,Compound NOT metabolized,Compound NOT metabolized,Compound NOT metabolized,Compound NOT metabolized,Compound NOT metabolized,Compound NOT metabolized,Bacterial Biotransformation [1]: Compound NOT metabolized; Bacterial Biotransformation [4]: Compound NOT metabolized; Bacterial Biotransformation [6]: Compound NOT metabolized; Bacterial Biotransformation [7]: Compound NOT metabolized; Bacterial Biotransformation [9]: Compound NOT metabolized; Bacterial Biotransformation [11]: Compound NOT metabolized; Bacterial Biotransformation [12]: Compound NOT metabolized; Bacterial Biotransformation [15]: Compound NOT metabolized; Bacterial Biotransformation [17]: Compound NOT metabolized; Bacterial Biotransformation [22]: Compound NOT metabolized; Bacterial Biotransformation [25]: Compound NOT metabolized; Bacterial Biotransformation [26]: Compound NOT metabolized; Bacterial Biotransformation [29]: Compound NOT metabolized; Bacterial Biotransformation [31]: Compound NOT metabolized; Bacterial Biotransformation [32]: Compound NOT metabolized; Bacterial Biotransformation [33]: Compound NOT metabolized; Bacterial Biotransformation [35]: Compound NOT metabolized; Bacterial Biotransformation [36]: Compound NOT metabolized; Bacterial Biotransformation [37]: Compound NOT metabolized; Bacterial Biotransformation [38]: Compound NOT metabolized
CCCCCOC(=O)Nc1nc(=O)n([C@@H]2O[C@H](C)[C@@H](O)[C@H]2O)cc1F [CAPECITABINE],Compound NOT metabolized,Compound NOT metabolized,Compound NOT metabolized,Compound NOT metabolized,Compound NOT metabolized,Compound NOT metabolized,Compound metabolized,Compound NOT metabolized,Compound NOT metabolized,Compound NOT metabolized,Compound NOT metabolized,Compound NOT metabolized,Compound NOT metabolized,Compound metabolized,Compound NOT metabolized,Compound metabolized,Compound NOT metabolized,Compound NOT metabolized,Compound NOT metabolized,Compound metabolized,Bacterial Biotransformation [41]: Compound metabolized; Bacterial Biotransformation [42]: Compound NOT metabolized; Bacterial Biotransformation [43]: Compound NOT metabolized; Bacterial Biotransformation [44]: Compound NOT metabolized; Bacterial Biotransformation [45]: Compound NOT metabolized; Bacterial Biotransformation [46]: Compound NOT metabolized; Bacterial Biotransformation [47]: Compound metabolized; Bacterial Biotransformation [48]: Compound NOT metabolized; Bacterial Biotransformation [49]: Compound NOT metabolized; Bacterial Biotransformation [50]: Compound NOT metabolized; Bacterial Biotransformation [51]: Compound NOT metabolized; Bacterial Biotransformation [52]: Compound NOT metabolized

# Source: ChEMBL document CHEMBL5303573, “Mapping human microbiome drug metabolism by gut bacteria and their genes” (Nature, 2019)
